The source of these data is patent US10807932B2, “Benzosuberene analogues and related compounds with activity as anticancer agents” (Baylor University, priority 2018, dated 2020).

Where “and” joins values, the source holds several entries; their conditions need not be identical. Equal values may be shown once. Entries after “also recorded” stand apart in the source; their conditions may differ. Bounds are passed on as bounds.

One data set concerns tubulin. Kind of data set: Colchicine binding assay (inhibition of [3H]colchicine binding to tubulin). The conditions noted are these: 1.0 μM tubulin, 5.0 μM [3H]colchicine. The protocol:
Colchicine Binding Assay.
Inhibition of [^3H]colchicine binding to tubulin was measured in 0.1 mL reaction mixtures, each containing 1.0 μM tubulin, 5.0 μM [^3H]colchicine (Perkin-Elmer), 5% (v/v) dimethyl sulfoxide, […], and components that stabilize the colchicine binding activity of tubulin (1.0 M monosodium glutamate [adjusted to pH 6.6 with HCl in a 2.0 M stock solution], 0.5 mg/mL bovine serum albumin, 0.1 M glucose-1-phosphate, 1.0 mM MgCl2, and 1.0 mM GTP). […] Reactions were stopped with 2.0 mL of ice-cold water, with the reaction mixtures being placed on ice. Each diluted sample was poured onto a stack of two DEAE-cellulose filters (GE Biomedical), followed by 3 successive 2 mL aliquots of ice-cold water. A reduced vacuum was used to remove excess water from the filters, which were washed three times with 2 mL water and placed into vials containing 5 mL of Biosafe II scintillation cocktail. Samples were counted 18 h later in a Beckman scintillation counter. Samples with inhibitors were compared to samples with no inhibitor, and percent inhibition was determined, correcting all values for the amount of radiolabel bound to the filters in the absence of tubulin.

Data set [1] addresses T1, purified bovine brain tubulin (Bos taurus, UniProt P81947+Q6B856).
T1 construct: purified bovine brain tubulin; from tissue; host or cells: bovine brain
Kind of data set: Inhibition of tubulin polymerization (turbidimetric, cell-free). The conditions noted are these: for IC50: 10 μM tubulin, extent of polymerization after 20 min at 30° C., read-out: Inhibition of tubulin polymerization IC50 (μM) ± SD; for inhibition of tubulin polymerization (in words): cell-free assay. Type of data set: biochemical. As to the method:
Inhibition of Tubulin Polymerization.
Tubulin polymerization was evaluated in 0.25 mL reaction mixtures (final volume) containing 1 mg/mL (10 μM) purified bovine brain tubulin, 0.8 M monosodium glutamate (pH 6.6), 4% (v/v) dimethyl sulfoxide, 0.4 mM GTP, and different compound concentrations. All components except GTP were preincubated for 15 min at 30° C. in 0.24 mL. The assay mixtures were cooled to 0° C., and 10 μL of 0.01 M GTP was added to each sample. Reaction mixtures were transferred to cuvettes held at 0° C. in Beckman DU-7400 and DU-7500 spectrophotometers equipped with electronic temperature controllers. The temperature was increased to 30° C., over about 30 s, and polymerization was followed turbidimetrically at 350 nm for 20 min.

For data set [2], the system named is SK-OV-3 (ovarian) cancer cell line. Kind of data set: Sulforhodamine B (SRB) growth inhibition assay, SK-OV-3. The format is cell-based, human. The conditions noted are these: 48 h treatment. The text has this:
(§1) Cell Lines and Sulforhodamine B (SRB) Assay.
(§2) The sulforhodamine B (SRB) assay was used to assess growth inhibition of human cancer cells, as previously described. DU-145, SK-OV-3, and NCI-H460 cancer cell lines (obtained from ATCC) were maintained in T75 flasks (Corning) using high glucose DMEM supplemented with 10% fetal bovine serum (Gibco)/1% gentamicin sulfate for a maximum of 15 passages. For these experiments, cells were trypsinized, counted, and plated at 7000-8000 cells/well into 96-well plates (Corning) and incubated for 24 h at 37° C. in a humidified incubator in a 5% CO2 atmosphere. Compounds to be tested were dissolved in DMSO to generate a 10 mg/mL stock solution, and serial dilutions added in media to the plates. Doxorubicin (Sigma-Aldrich) and paclitaxel (Tokyo Chemical) were used as positive controls. After a 48 h treatment, the cells were fixed with trichloroacetic acid (10% final concentration), washed, dried, stained with SRB dye, washed to remove excess dye, and dried. SRB dye was solubilized, and absorbances were measured at wavelength 540 nm and normalized to values at wavelength 630 nm using an automated Biotek plate reader.

The subject of data set [3] is DU-145 (prostate) cancer cell line. The data set is described as follows: Sulforhodamine B (SRB) growth inhibition assay, DU-145. The format is cell-based, human. The conditions noted are these: 48 h treatment.
Text: as §1, §2

Data set [4] has as its system NCI-H460 (lung) cancer cell line. Kind of data set: Sulforhodamine B (SRB) growth inhibition assay, NCI-H460. Type of data set: cell-based, human. The conditions noted are these: 48 h treatment.
Text: as §1, §2

Data set [5] has as its system PC3-DAB2IP-luc human prostate tumor xenograft. The data set is described as follows: In vivo vascular disruption by dynamic bioluminescence imaging (BLI). Further details: species or system Male Copenhagen rats. The note with it: for vascular response by BLI light emission (in words): phosphate. From the text:
In Vivo Vascular Disruption.
The human prostate cancer cell line (PC3) was modified by knock down of a tumor suppressor protein PC3-DAB2IP and further modified by transfection with a firefly luciferase reporter, as described in detail previously. Male Copenhagen rats (originally from Charles River and bred at UT Southwestern) were inoculated subcutaneously with 5×10^5 PC3-DAB2IP-luc cells mixed with 30% Matrigel® in the right thigh. These rats were approximately 6 weeks old and weighed between 100-120 g on date of implantation. Tumors were allowed to grow to a diameter of at least 1 cm before treatment commenced. Three rats were treated with VDA prodrug 89 (25 mg/mL in saline) administered IP. Rat 1 received 10 mg/kg followed by 40 mg/kg 24 h later and CA4P (30 mg/kg at 20 mg/mL in saline) was administered IP as a control 4 days later. Rat 2 received a single dose of 40 mg/kg of VDA prodrug 89, and rat 3 received 80 mg/kg of 89. Bioluminescence imaging (BLI) was performed before treatment (baseline), and at 4 and 24 h after treatment using an IVIS Spectrum® (Perkin-Elmer). Briefly, anesthetized rats (breathing oxygen with 3% isoflurane, Henry Schein Inc.) were injected subcutaneously in the foreback neck region with 120 mg/kg D-luciferin sodium salt (Gold Biotechnology, St. Louis, Mo.) and imaged over a time course of about 30 min. Fresh luciferin was administered at each time point. The resulting light intensity time curves were analyzed using Living Image® Software and light emission measured for a region of interest encompassing the tumor. All animal procedures were carried out in accordance with the Guide for the Care and Use of Laboratory Animals as adopted and promulgated by the U.S. National Institutes of Health as well as the Institutional Animal Care and Use Committee approved protocols (APN 2017-102168) at the University of Texas Southwestern Medical Center.
Ultimately, VDAs will be used in vivo, and thus it is crucial to understand both efficacy of vascular disruption and potential off target toxicity in vivo. As a preliminary investigation, the extent of vascular damage was assessed in a human prostate tumor line in rats treated with the water-soluble prodrug salt 89 compared to CA4P as control. Many imaging methods have been developed to assess vascular disruption non-invasively in vivo. Dynamic bioluminescence imaging (BLI) was favored for initial validation of VDA activity since it provides a fast, non-invasive and easy method and allows comparison of repeat or sequential investigations. BLI does require the use of cells transfected to express luciferase (luc), but these are commonly available and we have used this approach extensively as have others. The human prostate cancer PC3 line was used, in which the tumor suppressor protein DAB2IP had been knocked down and luciferase introduced. BLI requires administration of luciferin substrate, which readily crosses membranes and is carried throughout the vasculature. The measurement of light emission dynamics is related to vascular delivery of the luciferin substrate, and thus it provides a measure of vascular patency. Disruption of tumor vasculature blocks delivery of the substrate and consequently results in a quantifiable decrease in bioluminescent signal.

The conditions of data set [6]: 30 mg/kg, rats, shown previously; cited from earlier work.

T1 sequence (Q6B856 whole entry): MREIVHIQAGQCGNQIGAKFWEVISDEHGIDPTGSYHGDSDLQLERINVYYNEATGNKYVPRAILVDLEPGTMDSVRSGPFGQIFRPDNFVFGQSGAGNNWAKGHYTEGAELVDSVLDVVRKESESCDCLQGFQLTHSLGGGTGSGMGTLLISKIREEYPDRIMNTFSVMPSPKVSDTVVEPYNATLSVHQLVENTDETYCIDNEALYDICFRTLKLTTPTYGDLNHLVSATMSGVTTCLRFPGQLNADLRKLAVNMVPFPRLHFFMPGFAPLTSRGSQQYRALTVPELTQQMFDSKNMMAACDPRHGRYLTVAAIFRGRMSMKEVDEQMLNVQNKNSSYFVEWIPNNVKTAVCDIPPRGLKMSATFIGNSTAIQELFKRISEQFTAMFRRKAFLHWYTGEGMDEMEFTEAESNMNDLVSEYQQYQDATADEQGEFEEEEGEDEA
T1 sequence (P81947 whole entry): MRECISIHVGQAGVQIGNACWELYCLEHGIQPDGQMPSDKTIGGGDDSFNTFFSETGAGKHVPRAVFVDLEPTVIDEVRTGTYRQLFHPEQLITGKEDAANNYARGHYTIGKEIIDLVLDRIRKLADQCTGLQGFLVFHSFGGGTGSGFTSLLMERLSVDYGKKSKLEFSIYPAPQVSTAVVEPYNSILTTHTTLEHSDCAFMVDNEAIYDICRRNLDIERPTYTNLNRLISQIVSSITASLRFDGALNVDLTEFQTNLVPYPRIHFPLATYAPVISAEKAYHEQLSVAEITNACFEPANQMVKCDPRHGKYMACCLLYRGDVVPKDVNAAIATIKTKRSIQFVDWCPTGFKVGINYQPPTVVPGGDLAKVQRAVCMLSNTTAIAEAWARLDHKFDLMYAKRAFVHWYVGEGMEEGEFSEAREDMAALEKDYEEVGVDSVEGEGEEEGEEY

As for `COc1ccc2c(c1O)CCCC1=C2c2cc(OC)c(OC)c(OC)c2C1=O` [Compound 91, 4-Hydroxy-3,9,10,11-tetramethoxy-6,7-dihydrodibenzo[a,h]azulen-8(5H)-one], in the data set with tubulin (compound at 5 μM), the “% Inhibition of colchicine binding ± SD” value is 45 ± 4 (5 μM) %. Also, the IC50 in data set [1] stood at 4.2 ± 0.2 µM. Besides, the GI50 in data set [2] (Homo sapiens, SK-OV-3) was found to be 39.9 nM; in data set [3] (Homo sapiens, DU-145) it was 32.1 nM; in data set [4] (Homo sapiens, NCI-H460), 105 nM.
`COc1ccc2c(c1C)CCCC=C2c1cc(OC)c(OC)c(OC)c1` [Compound 9, 1-methy-2-methoxy-5-(3′, 4′, 5′-trimethoxyphenyl)-benzosuber-5-ene]: in the data set on tubulin (compound at 5 μM), the “% Inhibition of colchicine binding ± SD” value is reported as 65 ± 0.6 (5 μM) %. Also, the IC50 in data set [1] amounted to 1.6 ± 0.2 µM. The GI50 turned out to be 330 nM in data set [2] (Homo sapiens, SK-OV-3); 644 nM in data set [3] (Homo sapiens, DU-145); 422 nM in data set [4] (Homo sapiens, NCI-H460).
As to `COc1ccc2c(c1O)CCCC=C2c1cc(OC)c(OC)c(OC)c1` [KGP18, 3-Methoxy-9-(3,4,5-trimethoxyphenyl)-6,7-dihydro-5H-benzo[7]annulen-4-ol, reference compound], the “% Inhibition of colchicine binding ± SD” value was 73 ± 5% in the data set on tubulin (compound at 1 μM) and 95 ± 0.5% in the data set with tubulin (compound at 5 μM). Further, the IC50 in data set [1] is ~0.85 µM and 0.85 µM. Also, the GI50 was found to be 0.0543 nM in data set [2] (Homo sapiens, SK-OV-3); 0.0249 nM in data set [3] (Homo sapiens, DU-145); 0.0418 nM in data set [4] (Homo sapiens, NCI-H460).
With `COc1cc(C2=CC=CCc3c2ccc(OC)c3OP(=O)([O-])[O-])cc(OC)c1OC.[Na+].[Na+]` [Compound 89, Sodium 3-methoxy-9-(3,4,5-trimethoxyphenyl)-5H-benzo[7]annulen-4-yl phosphate], in the data set on tubulin (compound at 5 μM), the “% Inhibition of colchicine binding ± SD” value is given as 45 ± 2 (5 μM) %. Moreover, the IC50 in data set [1] was found to be 16 ± 0.7 µM. Also, the “inhibition of tubulin polymerization (in words)” value (“inhibition … (in words)” for short) in data set [1] is “inactive”. Moreover, the GI50 in data set [2] (Homo sapiens, SK-OV-3) was found to be 15.3 nM; in data set [3] (Homo sapiens, DU-145), 23.9 nM; in data set [4] (Homo sapiens, NCI-H460), 29.1 nM. Moreover, the “vascular response by BLI light emission (in words)” value in data set [5] (10 mg/kg IP, rat) was “no vascular perturbation; also recorded: minimal change in light emission”; in data set [5] (40 mg/kg IP, 4 h, rat), “substantial vascular shutdown; also recorded: substantially diminished light emission; also recorded: revealed vascular disruption”. Also, the “recovery of BLI signal (in words)” value in data set [5] (40 mg/kg IP, 24 h, rat) is reported as “substantial recovery by 24 h”. For the same compound, the “appearance of the rats” value in data set [5] (40 mg/kg IP, at 48 h) is “appeared healthy”. Besides, in data set [5] (80 mg/kg IP, rat), the tolerability result was “well tolerated”. Besides, the “vascular disruption (in words)” value in data set [5] (80 mg/kg IP, rat) is “did not show additional vascular disruption”.
Regarding `COc1cc(C2=CC(O)CCc3c2ccc(OC)c3OC)cc(OC)c1OC` (stereo not drawn) [Compound 57, 3,4-Dimethoxy-9-(3,4,5-trimethoxyphenyl)-6,7-dihydro-5H-benzo[7]annulen-7-ol], in the data set on tubulin (compound at 5 μM), the “% Inhibition of colchicine binding ± SD” value is 28 ± 4 (5 μM) %. Besides, the IC50 in data set [1] came out at 3.8 ± 0.5 µM. Moreover, in data set [1], the “inhibition … (in words)” value is given as “reduced inhibition of tubulin polymerization”. Besides, the GI50 amounted to 263 nM in data set [2] (Homo sapiens, SK-OV-3); 439 nM in data set [3] (Homo sapiens, DU-145); 432 nM in data set [4] (Homo sapiens, NCI-H460).
With `COc1ccc2c(c1C#N)CCCC=C2c1cc(OC)c(OC)c(OC)c1` [Compound 38, 3-Methoxy-9-(3,4,5-trimethoxyphenyl)-6,7-dihydro-5H-benzo[7]annulene-4-carbonitrile], the “% Inhibition of colchicine binding ± SD” value with tubulin (compound at 5 μM) is 62 ± 0.7 (5 μM) %. For the same compound, the IC50 in data set [1] stood at 1.1 ± 0.1 µM. In addition, the GI50 was 64.8 nM in data set [2]; 860 nM in data set [3] (Homo sapiens, DU-145); 434 nM in data set [4] (Homo sapiens, NCI-H460).
Consider `COc1ccc2c(c1O)CC=CC=C2c1cc(OC)c(OC)c(OC)c1` [Compound 88, 3-Methoxy-9-(3,4,5-trimethoxyphenyl)-5H-benzo[7]annulen-4-ol], for which the “% Inhibition of colchicine binding ± SD” value stood at 68 ± 1% in the data set on tubulin (compound at 0.5 μM) and 95 ± 0.8% in the data set with tubulin (compound at 5 μM). The IC50 in data set [1] was 0.48 ± 0.08 µM. Further, the GI50 in data set [2] (Homo sapiens, SK-OV-3) came out at 6.9 nM; in data set [3] (Homo sapiens, DU-145) it was 97.6 nM; in data set [4] (Homo sapiens, NCI-H460), 58.1 nM.
Regarding `COc1ccc(/C=C\c2cc(OC)c(OC)c(OC)c2)cc1OP(=O)(O)O` [CA4P, combretastatin A-4 phosphate, reference compound], the IC50 in data set [1] is > 40 µM. The values for the GI50 in data set [2], in data set [3] and in data set [4] were 1.19 nM, 3.23 nM and 1.94 nM, respectively. Besides, the “vascular shutdown (in words)” value in data set [6] is “extensive vascular shutdown”. Besides, the “vascular response by BLI (in words)” value in data set [5] (30 mg/kg IP, given 4 days after 89 to the same rat) is listed as “very similar effect”.
Turning to `COc1ccc2c(c1O)CCCC(O)C2(O)c1cc(OC)c(OC)c(OC)c1` (stereo not drawn) [Compound 35, 2-Methoxy-5-(3,4,5-trimethoxyphenyl)-6,7,8,9-tetrahydro-5H-benzo[7]annulene-1,5,6-triol], the “% Inhibition of colchicine binding ± SD” value in the data set with tubulin (compound at 5 μM) was 0 (5 μM) %. Further, the IC50 in data set [1] is > 20 µM. Also, the “inhibition … (in words)” value in data set [1] is recorded as “reduced inhibition of tubulin polymerization”. The GI50 was found to be 3030 nM in data set [2] (Homo sapiens, SK-OV-3); 4040 nM in data set [3] (Homo sapiens, DU-145); 3860 nM in data set [4] (Homo sapiens, NCI-H460).

The IC50 is the concentration at which inhibition is half-maximal. Usually GI50 stands for the concentration that inhibits growth by half. A high value points to less potent growth inhibition.
